The text below walks through data of patent US12534501B2, “Targeting deregulated Wnt signaling in cancer using stabilized alpha-helices of BCL-9” (Dana-Farber Cancer Institute, Inc., priority 2011, dated 2026).

In series [1] the test system is NFκB luciferase reporter in Colo320 cells. The series can be described thus: NFκB reporter gene transcriptional assay. The format is cell-based. The conditions noted are these: selectivity control. On the procedure: Luciferase activity was measured using the Dual Luciferase Reporter Assay System (Promega) as previously described (Sukhdeo, K. et al. Proc Natl Acad Sci USA 104, 7516-21 (2007)). To measure Wnt or NFκB reporter activity, Colo320 cells were transfected with TOP-FLASH, FOP-FLASH plasmid (Millipore Corporation) or NFκB luciferase reporter (Stratagene), along with an internal Renilla control plasmid (hRL-null). Transfection was accomplished using FuGENE (Roche) according to the manufacturer's protocol. The results were normalized to control Renilla activity. The reported data represent the average of three independent transfection experiments performed in triplicate. See results in FIG. 9, FIG. 10.
Background: Reporter assays use an easily measured gene product as a stand-in for the process of interest.

For series [2], the system named is multiple myeloma primary tumors (MMPT). The series can be described thus: Cell proliferation, [3H]thymidine uptake. The format is cell-based, human. The conditions noted are these: primary MM cells; 5 μM. An excerpt:
(§1) Bone marrow specimens were obtained from patients with MM in accordance with Dana-Farber Cancer Institute Review Board approval and informed consent performed in compliance with the Declaration of Helsinki. Primary CD138+ plasma cells were purified using magnetic beads as described (Sukhdeo, K. et al. Proc Natl Acad Sci USA 104, 7516-21 (2007)). CRC primary tumor samples were obtained from the Brigham and Women's Hospital in accordance with the policies of their Institutional Review Board. To generate sufficient CRC primary tumor cells for experimentation, the primary tumors were first expanded subcutaneously in NOD/SCID mice (Jackson Laboratory). After the tumors reached 2 cm in diameter, mice were sacrificed according to institutional guidelines and subcutaneous tumor xenografts were minced with a scalpel and digested by incubation with collagenase IV (Worthington Biomedical Corporation) and 0.01% DNase I (Sigma-Aldrich) at 37° C. for 30 min, followed by additional mechanical disaggregation using a Stomacher device (Seward Laboratory Systems Inc.). […]
(§2) Cell proliferation assays were performed as described (Sukhdeo, K. et al. Proc Natl Acad Sci USA 104, 7516-21 (2007)). Cell viability was measured using the CellTiter-Glo assay (Promega) according to the manufacturer's instructions. Apoptosis was evaluated by activated caspase-3 and PARP western blotting. […]

Series [3] has as its system colorectal primary tumors (CCPT). The series can be described thus: Cell proliferation, [3H]thymidine uptake. It counts as cell-based, human. The conditions noted are these: primary CRC cells; 5 μM, 24 h.
Text: as §1, §2

Series [4] concerns Wnt target genes in DLD1 colon cancer cell line. As to the kind of experiment: Affymetrix gene expression profiling / GSEA and qRT-PCR validation. It counts as cell-based. On the procedure:
RNA from SAH-BCL9B and vehicle (0.1% DMSO)-treated cells were run on an Affymetrix U133A 2.0 array chip as described (Mollering et al, Nature 462, 182-8 (2009). Statistical analyses were performed in R (http://www.r-project.org). The array data were normalized with rma method (Bolstad, B. M., et al. Bioinformatics 19, 185-93 (2003)) as implemented in the Affy package (http://www.bioconductor.org/packages/2.6/bioc/html/affy.html) and differential expression calculated with empirical Bayes shrinkage of the standard errors toward a common value with LIMMA (http://www.bioconductor.org/packages/2.6/bioc/html/limma.html) (McCarthy, D. J. & Smyth, G. K. Bioinformatics 25, 765-71 (2009); Smyth, G. K. Stat Appl Genet Mol Biol 3, Article3 (2004)). Gene set enrichment analysis was performed using GSEA software (version 2.06) and mSigDB (version 2.5) (Subramanian, A. et al. Proc Natl Acad Sci USA 102, 15545-50 (2005)).
To further investigate the specificity of SAH-BCL9B in blocking Wnt transcriptional activity, comparative genome-wide expression analyses of Wnt target genes in the DLD1 colon cancer cell line, for which a Wnt transcription pathway signature has been described (L. G. Van der Flier et al., Gastroenterology 132, 628 (2007)), was performed. RNA from triplicate SAH-BCL9B- and vehicle-treated DLD1 samples (10 μM each for 12 hours) was isolated for gene expression profiling analyses. Affymetrix Human U133 Plus 2.0 arrays were processed using the function of the affy Bioconductor package (URL http://www.R-project.org.). Gene sets were compiled from Van der Flier et al. and gene set enrichment and statistical analyses performed using GSEA software (http://www.broad.mit.edu/GSEA) and a two-tailed t-test, respectively. Microarray data has been deposited in the Gene Expression Omnibus (http://www.ncbi.nlm.nih.gov/geo) and comply with MIAME annotation standards. […]
Background: Real-time PCR tracks product formation cycle by cycle.

The test system of series [5] is Colo320 cells. As to the kind of experiment: Cellular uptake of FITC-labelled peptides. It counts as cell-based. The conditions noted are these: FITC derivatives. The protocol: For fluorescence microscopy evaluation, cells were prepared using a cytocentrifuge (Thermo Shandon) and fixed as previously described (Sukhdeo, K. et al. Proc Natl Acad Sci USA 104, 7516-21 (2007); Mani, M. et al. Cancer Res 69, 7577-86 (2009)). Anti-β-catenin and rhodamine-conjugated secondary antibodies (5 μg/ml; Southern Biotechnology) were employed. Images were obtained using a BioRad Radiance 2000 laser scanning confocal microscope. Cell permeability of SAH-BCL9B and SAH-BCL9B(R359E) were determined by fluorescence microscopy of cells treated with FITC-derivatives of the above described stapled peptides and also by blotting/fluorescence scan, performed as previously described (Pitter, K. et al Methods Enzymol, 446, (2008), 387-408; Walensky, L. D. et al. Science 305, 1466-70 (2004). See results in FIG. 1E, FIG. 7.

Numbered stars: 1 amine (or outer) side, 2 acyl side, 3 side chain; on linkers, the order of the positions; unused ones are H or OH. Bridge positions count the residues as written; N and C are the ends. Square brackets hold non-standard residues; d marks the D form. Peptide text beside a SMILES is read from it. ξ: configuration not given here. ξαMeNle(6-ylidene) = CC(CCCC=[*:3])(N[*:1])C(=O)[*:2]; Nle = CCCC[C@H](N)C(=O)O

As for `CCCC[C@H](NC(=O)[C@H](CCCNC(=N)N)NC(=O)[C@H](CCC(N)=O)NC(=O)[C@@H](NC(=O)C1(C)CCCC=CCCCC(C)(NC(=O)[C@H](CC(C)C)NC(=O)[C@H](CO)NC(=O)[C@H](CCCNC(=N)N)NC(=O)[C@H](CCC(=O)O)NC(=O)[C@H](CCCNC(=N)N)NC(=O)[C@H](Cc2c[nH]cn2)NC(=O)[C@H](CCC(=O)O)NC(=O)[C@H](CC(C)C)NC(=O)[C@H](CCC(N)=O)NC(=O)[C@H](CCC(=O)O)NC(=O)[C@H](CCC(N)=O)NC(=O)[C@H](CO)NC(=O)[C@H](CC(C)C)NC(C)=O)C(=O)N[C@@H]([C@@H](C)O)C(=O)N[C@@H](CC(C)C)C(=O)N[C@@H](CCCNC(=N)N)C(=O)N1)[C@@H](C)CC)C(=O)N[C@@H](CC(C)C)C(=O)N[C@@H](Cc1ccccc1)C(N)=O` (stereo partly shown) [SAH-BCL9B] (Ac-LSQEQLEHRERSL[ξαMeNle(6-ylidene)]TLR[ξαMeNle(6-ylidene)]IQR[Nle]LF-NH2; staple 14-18), the “effect on NFκB reporter activity” value in series [1] is listed as “no effect”. Besides, the proliferation result in series [2] and in series [3] was “reduced the proliferation” in each case. Besides, the VEGF-A expression result in series [4] (DLD1) is on record as “downregulated”. In series [4] (DLD1, 10 μM, 12 hours), the Axin2 expression entry is “among the most down-regulated genes”. For the same compound, in series [4] (DLD1, 10 μM, 12 hours, adenoma and carcinoma signatures), the “GSEA correlation of down-regulated genes with dominant-negative TCF1 and TCF4” value was “strong and statistically significant correlation”.
Regarding “SAH-BCL9B(R359E): SEQ ID NO: 7: LSQEQLEHEERSLXTLRXIQRBLF; reverse polarity point mutant, negative control of SAH-BCL9B”, the cellular uptake result in series [5] is “similar”.
